19 compounds from PMC8158484, “Activity Components from Gynostemma pentaphyllum for Preventing Hepatic Fibrosis and of Its Molecular Targets by Network Pharmacology Approach” (Molecules, 2021) can be followed below.

Common to all, as to type: cell-based, human
Data set [1] deals with t-HSC/Cl-6 cells. The experiment in a line: MTT cell proliferation assay, activated t-HSC/Cl-6 cells. The note with it: mean ± SD, read-out: Inhibitory activity (IC50) in activated t-HSC/Cl-6 cells. On the procedure: (§1) The cell viability was assessed with the MTT assay. The human hepatic stellate cells (t-HSC/Cl-6) and human normal liver cells (LO2) bought from the Cell Bank of Chinese Academy of Sciences (Shanghai, China) were seeded in 96-well plates for 24 h and cultured with high glucose including 10% fetal bovine serum, and 1% penicillin/streptomycin were used to culture cells at 37 °C under 5% CO2 and then were treated with serial dilutions of the compounds (25, 50, 100, 200, 400 μM) for another 36 h. For MTT assay, ten microliters of MTT reagent ([…]) was added to each well after removing all the liquid in the wells, and incubated at 37 °C in a humidified atmosphere of 5% CO2 air for 4 h. At the end of incubation, the growth medium was removed and replaced with 100 μL of DMSO at room temperature and agitating on a vortex for 20 min. The absorbance was determined at 490 nm as reference on a Bio-Rad micro-plate reader.
For orientation: Tetrazolium assays rely on reduction of a dye to a coloured formazan, in cell work by metabolically active cells.

In data set [2] the test system is LO2 cells. The experiment in a line: MTT cell proliferation assay, LO2 normal liver cells. Particulars: for IC50: 36 h, MTT, read-out: Inhibitory activity (IC50) in LO2 cells. The method, then:
as §1

The test system of data set [3] is t-HSC/Cl-6 cells. The experiment in a line: Cell apoptosis analysis: cell morphology and DAPI nuclear staining, t-HSC/Cl-6 cells. Particulars: 36 h. On the procedure:
(§2) For cell morphology analysis, t-HSC/C1-6 cells and LO2 cells were grown in 6-well plates. After 24 h, compound 19 was incubated with the cells for another 36 h and 0.1% DMSO was used to culture control cells. […] Then the cells were rinsed with PBS and resuspended in 1 mL of 0.1% DAPI prepared in methanol for 15 min. PBS was used to wash the cells three times. Nuclear morphology was observed by a fluorescent microscope (Olympus BH-2, Osaka, Japan).

Data set [4] has as its system LO2 cells. Kind of data set: Cell apoptosis analysis: cell morphology and DAPI nuclear staining, LO2 cells. The note with it: 36 h. The method, then: as §2
The next data set concerns t-HSC/C1-6 cells. The experiment in a line: Cell cycle analysis by flow cytometry (propidium iodide). Particulars: 50 μM compound, 36 h; control group 1.04%. The method, then: The cell cycle analysis was performed using a previous method. The t-HSC/C1-6 cells were cultured in the presence of 50 μM compound 19 and DMSO for 12 h, 24 h, and 36 h. Briefly, treated and untreated cells were trypsinized, harvested, and washed with PBS. Then the cells were fixed with 75% ethanol overnight at […]. Fixed cells were washed with PBS and stained with propidium iodide solution in the dark for 4 h. Cell cycle distribution was analyzed using FACScan (Becton Dickinson Immunocytometry Systems, San Jose, CA, USA).

The subject of data set [5] is t-HSC/Cl-6 cells. Kind of data set: Western blotting of cell cycle, PI3K/Akt and caspase proteins. The method, then:
RIPA lysis buffer was used to extract total cellular proteins, and the protein concentration was determined by bicinchoninic acid. Protein samples (20 μg/lane) were loaded onto 10% SDS–PAGE gels for electrophoresis and then the transmembrane was conducted. After that, blocking of polyvinylidene fluoride (PVDF) membrane was carried out using 5% bovine serum albumin in Tris-buffered saline Tween-20 (TBST) buffer for 1 h, subsequently probing with a primary antibody (1:1000 dilution), such as p-PI3K, p-Akt, Cl-caspase-3, Cl-caspase-9, Cl-PARP, CDK4, Cyclin D1, or P21, at 4 °C overnight. Then, TBTS was used to wash the membrane. The PVDF membranes were incubated with the secondary antibody (1:5000 dilution) for 2 h. X-ray films were employed to develop the signals.
For orientation: Immunoblotting shows a protein as a band on a membrane.

Setting [6] is: Rattus norvegicus, T-HSC/Cl-6, 36 h.
Setting [7] is: dose-dependent manner as printed.

Structures are written as SMILES. Read-outs that look alike come from different tables or passages of the source.

`CC(C)=CCCC(O)(COC1OC(CO)C(O)C(O)C1O)C1CCC2(C)C1CCC1C3(C)CCC(OC4OC(CO)C(O)C(OC5OCC(O)C(O)C5O)C4OC4OCC(O)C(O)C4O)C(C)(C)C3CCC12C` (centres unmarked) [Compound 1]: the IC50 with t-HSC/Cl-6 cells [1] (setting [6]) was more than 200 µM; in the data set with LO2 cells [2] (Homo sapiens, L02) it was more than 200 µM.

Take `CC(C)=CCCC(O)(CO)C1CCC2(C)C1CCC1C3(C=O)CCC(OC4OCC(O)C(O)C4OC4OC(C)C(O)C(O)C4O)C(C)(C)C3CCC12C` (centres unmarked) [Compound 2]: the IC50 was 50.4 ± 1.4 µM in the data set on t-HSC/Cl-6 cells [1] (setting [6]) and more than 200 µM with LO2 cells [2] (Homo sapiens, L02).

For `C=C(C)OCC1OC(OC2CCC3(C)C(CCC4(C)C3CCC3C(C(O)(CCC=C(C)C)COC5OC(CO)C(O)C(O)C5O)CCC34C)C2(C)C)C(OC2OC(C)C(O)C(O)C2O)C(OC2OCC(O)C(O)C2O)C1O` (centres unmarked) [Compound 3], the IC50 in the data set on t-HSC/Cl-6 cells [1] (setting [6]) is more than 200 µM; in the data set with LO2 cells [2] (Homo sapiens, L02) it was more than 200 µM.

On to `C=C(C)OCC1OC(OC2CCC3(C)C(CCC4(C)C3CCC3C(C5(O)CC(C=C(C)C)OC5=O)CCC34C)C2(C)C)C(OC2OC(C)C(O)C(O)C2O)C(OC2OCC(O)C(O)C2O)C1O` (centres unmarked) [Compound 4], for which the IC50 in the data set with t-HSC/Cl-6 cells [1] (setting [6]) is 126 ± 9.7 µM; in the data set on LO2 cells [2] (Homo sapiens, L02), more than 200 µM.

On to `C=C(C)OCC1OC(OC2CCC3(C)C(CCC4(C)C3CCC3C(C5(O)CC(C=C(C)C)OC5O)CCC34C)C2(C)C)C(OC2OC(C)C(O)C(O)C2O)C(OC2OCC(O)C(O)C2O)C1O` (centres unmarked) [Compound 5], for which the IC50 in the data set on t-HSC/Cl-6 cells [1] (setting [6]) was more than 200 µM; in the data set on LO2 cells [2] (Homo sapiens, L02), more than 200 µM.

For the compound `CC(C)=CC1CC(O)(C2CCC3(C)C2CCC2C4(C)CCC(OC5OC(CO)C(O)C(OC6OCC(O)C(O)C6O)C5OC5OC(C)C(O)C(O)C5O)C(C)(C)C4CCC23C)C(=O)O1` (centres unmarked) [Compound 6], the IC50 in the data set on t-HSC/Cl-6 cells [1] (36 h) was 99.9 ± 4.5 µM; with LO2 cells [2] it was more than 200 µM.

As for `CC(C)=CCCC(O)(CO)C1CCC2(C)C1CCC1C3(C)CCC(OC4OC(CO)C(O)C(OC5OCC(O)C(O)C5O)C4OC4OC(C)C(O)C(O)C4O)C(C)(C)C3CCC12C` (centres unmarked) [Compound 7], the IC50 is 152 ± 7.4 µM in the data set with t-HSC/Cl-6 cells [1] (setting [6]) and more than 200 µM in the data set with LO2 cells [2] (Homo sapiens, L02).

Take `CC(C)=CC1CC(O)(C2CCC3(C)C2CCC2C4(C)CCC(OC5OC(CO)C(O)C(OC6OCC(O)C(O)C6O)C5OC5OC(C)C(O)C(O)C5O)C(C)(C)C4CCC23C)C(O)O1` (centres unmarked) [Compound 8]: the IC50 with t-HSC/Cl-6 cells [1] (setting [6]) is 68.8 ± 3.2 µM; in the data set with LO2 cells [2] (Homo sapiens, L02), more than 200 µM.

With `CC(C)=CC1CC(O)(C2CCC3(C)C2CCC2C4(C)CCC(OC5OC(CO)C(O)C(OC6OCC(O)C(O)C6O)C5OC5OC(C)C(O)C(O)C5O)C(C)(C)C4CCC23C)C(=O)O1` (centres unmarked) [Compound 9], the IC50 in the data set on t-HSC/Cl-6 cells [1] (setting [6]) is 114 ± 7.8 µM; in the data set on LO2 cells [2] (Homo sapiens, L02) it was more than 200 µM.

Consider `CC(C)=CCCC(O)(COC1OC(CO)C(O)C(O)C1O)C1CCC2(C)C1CCC1C3(C=O)CCC(OC4OCC(O)C(OC5OC(CO)C(O)C(O)C5O)C4OC4OC(C)C(O)C(O)C4O)C(C)(C)C3CCC12C` (centres unmarked) [Compound 10], for which the IC50 is more than 200 µM in the data set on t-HSC/Cl-6 cells [1] (setting [6]) and more than 200 µM in the data set on LO2 cells [2] (Homo sapiens, L02).

Consider `CC(C)=CCCC(O)(CO)C1CCC2(C)C1CCC1C3(C=O)CCC(OC4OCC(O)C(OC5OCC(O)C(O)C5O)C4OC4OC(C)C(O)C(O)C4O)C(C)(C)C3CCC12C` (centres unmarked) [Compound 11], for which the IC50 in the data set on t-HSC/Cl-6 cells [1] (setting [6]) was 43.6 ± 2.7 µM; in the data set with LO2 cells [2] (Homo sapiens, L02), more than 200 µM.

Regarding `CC(C)=CCCC(O)(COC1OC(CO)C(O)C(O)C1O)C1CCC2(C)C1CCC1C3(C)CCC(OC4OC(CO)C(O)C(OC5OCC(O)C(O)C5O)C4OC4OC(C)C(O)C(O)C4O)C(C)(C)C3CCC12C` (centres unmarked) [Compound 12], the IC50 is more than 200 µM with t-HSC/Cl-6 cells [1] (setting [6]) and more than 200 µM in the data set with LO2 cells [2] (Homo sapiens, L02).

As for `CC(C)=CCCC(O)(COC1OC(CO)C(O)C(O)C1O)C1CCC2(C)C1CCC1C3(C)CCC(OC4OC(CO)C(O)C(OC5OCC(O)C(O)C5O)C4OC4OC(C)C(O)C(O)C4O)C(C)(C)C3CCC12C` (centres unmarked) [Compound 13], the IC50 was 106 ± 2.6 µM in the data set with t-HSC/Cl-6 cells [1] (36 h) and more than 200 µM in the data set with LO2 cells [2].

In the case of `CC(C)=CCCC(O)(COC1OC(CO)C(O)C(O)C1O)C1CCC2(C)C1CCC1C3(CO)CCC(OC4OC(CO)C(O)C(OC5OCC(O)C(O)C5O)C4OC4OC(C)C(O)C(O)C4O)C(C)(C)C3CCC12C` (centres unmarked) [Compound 14], the IC50 in the data set with t-HSC/Cl-6 cells [1] (setting [6]) was more than 200 µM; in the data set on LO2 cells [2] (Homo sapiens, L02), more than 200 µM.

As to `CC(C)=CCCC(O)(COC1OC(CO)C(O)C(O)C1O)C1CCC2(C)C1CCC1C3(CO)CCC(OC4OCC(O)C(OC5OCC(O)C(O)C5O)C4OC4OC(C)C(O)C(O)C4O)C(C)(C)C3CCC12C` (centres unmarked) [Compound 15], the IC50 in the data set with t-HSC/Cl-6 cells [1] (setting [6]) is more than 200 µM; in the data set on LO2 cells [2] (Homo sapiens, L02) it was more than 200 µM.

Consider `CCCCOC1OC(C=C(C)C)CC1(O)C1CCC2(C)C1CCC1C3(C)CCC(OC4OCC(O)C(OC5OCC(O)C(O)C5O)C4OC4OC(C)C(O)C(O)C4O)C(C)(C)C3CCC12C` (centres unmarked) [Compound 16], for which the IC50 was 44.7 ± 1 µM in the data set with t-HSC/Cl-6 cells [1] (setting [6]) and more than 200 µM with LO2 cells [2] (Homo sapiens, L02).

Regarding `CC(=O)OCC1OC(OC2CCC3(C)C(CCC4(C)C3CCC3C(C5(O)CC(C=C(C)C)OC5=O)CCC34C)C2(C)C)C(OC2OC(C)C(O)C(O)C2O)C(OC2OCC(O)C(O)C2O)C1O` (centres unmarked) [Compound 17], the IC50 is 66.1 ± 3.8 µM with t-HSC/Cl-6 cells [1] (setting [6]) and more than 200 µM in the data set on LO2 cells [2] (Homo sapiens, L02).

Turning to `C=C(C)C=CCC(O)(COC1OC(CO)C(O)C(O)C1O)C1CCC2(C)C1CCC1C3(C)CCC(OC4OC(CO)C(O)C(OC5OCC(O)C(O)C5O)C4OC4OCC(O)C(O)C4O)C(C)(C)C3CCC12C` (centres unmarked) [Compound 18], the IC50 in the data set on t-HSC/Cl-6 cells [1] (setting [6]) is 58 ± 2.9 µM; in the data set with LO2 cells [2] (Homo sapiens, L02), more than 200 µM.

Consider `CCCCOC1OC(C=C(C)C)CC1(O)C1CCC2(C)C1CCC1C3(C)CCC(OC4OC(CO)C(O)C(OC5OCC(O)C(O)C5O)C4OC4OC(C)C(O)C(O)C4O)C(C)(C)C3CCC12C` (centres unmarked) [Compound 19], for which the IC50 in the data set with t-HSC/Cl-6 cells [1] (setting [6]) came to 28.1 ± 2 µM. Besides, the “Nuclear morphology of t-HSC/Cl-6 cells (DAPI staining)” value in the data set on t-HSC/Cl-6 cells [3] is “Typical apoptotic nuclear changes were observed”. Also, the “Cell morphology (apoptosis) of t-HSC/Cl-6 cells” value in the data set on t-HSC/Cl-6 cells [3] (phase contrast microscopy) is “apoptotic bodies and cell shrinkage were observed”. Also, the “Nuclear morphology of LO2 cells (DAPI staining)” value in the data set with LO2 cells [4] was “did not appear to have any specific effect”. Besides, the “Cell morphology of LO2 cells” value in the data set on LO2 cells [4] (phase contrast microscopy) is given as “no shrinkage was seen”. The “Cells in the subG1 phase” value in the data set on t-HSC/C1-6 cells is reported as 38.63%. Also, in the data set with t-HSC/Cl-6 cells [5], the “cyclin D1 expression” value is reported as “decreased” and the p21 level result is listed as “significant accumulation”. Moreover, in the data set with t-HSC/Cl-6 cells [5] (as time increased), the “Expression of phosphorylated-Akt” value is “inhibited” and the “Expression of phosphorylated-PI3K” value is recorded as “inhibited”. In the data set with t-HSC/Cl-6 cells [5] (setting [7]), the “Expression level of cleaved caspase-3” value is reported as “activated” and the “Expression level of cleaved caspase-9” value is on record as “activated”. Besides, the IC50 in the data set with LO2 cells [2] (Homo sapiens, L02) is more than 200 µM. In the data set on LO2 cells [2] (in words), the “Cytotoxicity to LO2 cells” value is recorded as “nontoxic”.
